# Measured values: patent publication US20210277352A1, “ENRICHMENT SUPPLEMENT FOR ANTIMICROBAL MATRICES” (priority 2018, published 2021)
# Where two headings read alike, the source gives them in different places.
# Legend:
# [1] = test system: Listeria innocua (ATCC 33090); type: cell-based
# [2] = test system: Salmonella typhimurium (ATCC 14028); conditions: 25 g food matrix, 100 mL BPW media, inoculation 10 cfu/sample, 35° C. 24 hours, mean of two replicates
# Experimental: (§1) Individual inoculums were prepared by serially diluting each culture sample with Butterfield's Buffer (3M Company, St. Paul, Minn.). To determine the cell concentration (cfu/sample), a 1 mL aliquot of diluted sample was plated onto a […] Aerobic Count Plate (3M Company, St. Paul, Minn.), incubated, and counted according to the manufacturer's instructions. The counts (cfu) from the plates were used to calculate the final dilution required to achieve the targeted inoculum concentration.
# (§2) The inoculated sample was added to a WHIRL-PAK sterile sampling bag that contained 100 mL of Buffered Peptone Water enrichment media. […] The bag was closed and the sample was mixed for 30 seconds followed by incubation at 35° C. for 24 hours. A 10 mL aliquot of the media was removed and serially diluted with Demi Fraser media (3M Company, St. Paul, Minn.). A 100 microliter sample from the final dilution was plated onto an EZ-CHROM Salmonella Plus agar plate according to the manufacturer's instructions and the plate was incubated at 37° C. for 24 hours. Colonies (cfu) that formed were counted by visual inspection. The total colony count post enrichment was calculated by adjusting the observed plate count based on the number and volume of the dilutions. The recovery of Salmonella typhimurium (cfu/mL) after enrichment is reported in Table 1 as the mean value of two replicates.
# [3] = test system: Listeria innocua (ATCC 33090); conditions: 25 g food matrix, 100 mL Demi Fraser media, inoculation 1.4 cfu/sample, 35° C. 24 hours, mean of two replicates
# Experimental: as §1
# as §2, with “Demi Fraser” for “Buffered Peptone Water”, “with fresh” for “with”, “media.” for “media (3M Company, St. Paul, Minn.).”, “a Modified Oxford (MOX)” for “an EZ-CHROM Salmonella Plus”, “dilutions.” for “dilutions. The recovery of Salmonella typhimurium (cfu/mL) after enrichment is reported in Table 1 as the mean value of two replicates.”
# [4] = salt in enrichment media 331 micromolar, 50 g food matrix, 200 mL Demi Fraser media, inoculation 3.7 cfu/sample, mean of two replicates
# [5] = salt in enrichment media 330 micromolar, 50 g food matrix, 200 mL Demi Fraser media, inoculation 3.7 cfu/sample, mean of two replicates
compound,measurement,setting,value
"O=S(=O)([O-])[O-].[Mg+2] [MgSO4, magnesium sulfate]",Recovery after Enrichment,"[1]; salt in enrichment media 332 micromolar, 50 g food matrix, 200 mL Demi Fraser media, inoculation 3.7 cfu/sample, mean of two replicates",1 × 10^5 cfu/mL
"O.O.O.O.O.O.O.O=S(=O)([O-])[O-].[Fe+2] [FeSO4, ferrous sulfate heptahydrate]",Recovery after Enrichment,[2]; FeSO4 50 mg/L,1 × 10^6 cfu/mL
same,Recovery after Enrichment,[2]; FeSO4 500 mg/L,1 × 10^6 cfu/mL
same,Recovery after Enrichment,[2]; FeSO4 2000 mg/L,1 × 10^7 cfu/mL
same,Recovery after Enrichment,[3]; FeSO4 50 mg/L,1 × 10^5 cfu/mL
same,Recovery after Enrichment,[3]; FeSO4 500 mg/L,1 × 10^3 cfu/mL
same,Recovery after Enrichment,[3]; FeSO4 2000 mg/L,1 × 10^3 cfu/mL
"[Ba+2].[Cl-].[Cl-] [BaCl2, barium chloride]",Recovery after Enrichment,[1]; [4],1 × 10^4 cfu/mL
"[Cl-].[Cl-].[Zn+2] [ZnCl2, zinc chloride]",Recovery after Enrichment,"[1]; ZnCl2 45 mg/L, 50 g food matrix, 200 mL Demi Fraser media, inoculation 3.7 cfu/sample, 35° C. 24 hours, mean of two replicates",1 × 10^6 cfu/mL
same,Recovery after Enrichment,[1]; [5],1 × 10^6 cfu/mL
ferric citrate [Example C6H5FeO7],Recovery after Enrichment,[1]; [4],1 × 10^4 cfu/mL
ferric ammonium citrate [Example C6H11FeNO7],Recovery after Enrichment,[1]; [5],1 × 10^4 cfu/mL
"[Ca+2].[Cl-].[Cl-] [CaCl2, calcium chloride]",Recovery after Enrichment,[1],1 × 10^4 cfu/mL
